Source: patent publication US7872051B2 (priority 2004, dated 2011)
Where two headings read alike, the source gives them in different places.

Experiments:
MDCK cells [1] = test: Trial 1 acute toxicity assay of PMD; settings: PMD 2%, 0.5%, 0.25% and 0.1% w/v
Procedure: The toxicity of PMD at the following concentrations in cell maintenance media was determined on a cell line with MDCK cells: • 2.5 mg/ml (0.25% w/v) • 5 mg/ml (0.5% w/v) • 20 mg/ml (2% w/v)
A cell only control was also implemented by following the same procedure (steps 2-6), but substituting PMD with cell maintenance media.
Toxicity was determined by toxicity-induced CPE (cytopathic effect) observations, which was visually scored using microscopy techniques. Toxicity-induced CPE is characterised by burst or rounded cells, which have become dissociated from their neighbouring cells, or the presence of cellular debris. […]

Vero cells = settings: 5 min exposure, count after 24 h vs cell only control, rounded to nearest 5
Procedure: (§1) PMD was tested at the following concentrations: • 2% w/v (20 mg/ml) • 1% w/v (10 mg/ml) • 0.5% w/v (5 mg/ml • 0.25% w/v (2.5 mg/ml)
(§2) Each PMD concentration was made up in 100% isopropyl and then sufficient cell infection media added such that the final concentration of isopropyl was always 10%.
(§3) The different concentrations were made up by taking into account the initial dilution of the compound that occurs in the toxicity assay (step 1) and virucidal assay (step 4). The dilution factors for both assays are 2 and 1.1, respectively.
(§4) Each of the four PMD concentrations was tested for toxicity on each of the three cell lines.
(§5) A “cell only” control was also implemented by following the same procedure but substituting PMD (step 1) with infection media.
(§6) The procedure for the toxicity assay was as follows: • 1) Cells (200 μl), at 2×10^6 cells/ml, were added to PMD (200 μl) and the reaction incubated for 5 minutes at room temperature. • 2) The reaction was terminated by the addition of infection media (3.6 ml) appropriate to the cell line. • 3) The terminated reaction (1 ml) was added, in triplicate, to the relevant wells of a 24-well plate. • 4) The cells were incubated for 24 hours at 37° C., 5% CO2. • 5) After the incubation period, the cells were trypsinised, the appropriate triplicate wells pooled together and a viable cell count performed using Trypan blue dye. • 6) The toxicity of PMD was determined by calculating the percentage cell survival of the test cells in comparison to the control cells.

Solubility in water = type: physicochemical
[2] = test system: influenza virus A/Sydney/5/97; test: Trial 1 virucidal assay of PMD (CPE on MDCK cells); type: cell-based
Urbani SARS = type: cell-based, Urbani SARS virus; settings: for Kill rate: line gradient of FIG. 3
MDCK cells [3] = settings: 5 min exposure, count after 24 h vs cell only control, rounded to nearest 5
Procedure: as §1, §2, §3, §4, §5, §6

[4] = test system: HSV-1 (Herpes Simplex Virus type 1); test: Trial 2 virucidal assay, HSV-1 on Vero cells; type: cell-based; settings: for Kill rate: gradient between the 1 minute and 5 minute time-points (FIG. 2)
C1008 cells = settings: 5 min exposure, count after 24 h vs cell only control, rounded to nearest 5
Procedure: as §1, §2, §3, §4, §5, §6

[5] = test system: A/Sydney/5/97 (human influenza virus H3N2); test: Trial 2 virucidal assay, A/Sydney/5/97 on MDCK cells; type: cell-based; settings: for Kill rate: line gradient of FIG. 4

## CC1CCC(C(C)(C)O)C(O)C1 (stereo not drawn) [PMD, p-menthane-3,8-diol]
MDCK cells [1]
  Toxicity on MDCK cells: do not exhibit toxicity
Vero cells; PMD 0.25% w/v
  Percentage cell survival: 65%
Vero cells; PMD 0.5% w/v
  Percentage cell survival: 65%
Vero cells; PMD 2% w/v
  Percentage cell survival: 100%
Solubility in water
  Solubility in water: poorly soluble
[2]
  Viral replication as evidenced by cell survival: no viral replication
[2]; PMD 0.5%, 0.25% and 0.1%, MDCK cells (cells were killed)
  Virucidal effect: no virucidal effect
Urbani SARS; PMD 0.25%, 10 seconds' exposure
  Antiviral effect: effective
Urbani SARS; Urbani SARS
  Effectiveness against the virus: effective
Urbani SARS; Urbani SARS, PMD 0.25% w/v, contact time 10 seconds
  Log reduction in viral titre: 1 −log10 TCID50/ml
Urbani SARS; Urbani SARS, PMD 0.25% w/v, contact time 30 seconds
  Log reduction in viral titre: 2 −log10 TCID50/ml
Urbani SARS; Urbani SARS, PMD 0.25% w/v, contact time 60 seconds (1 minute)
  Log reduction in viral titre: 1.5 −log10 TCID50/ml
Urbani SARS; Urbani SARS, PMD 0.25% w/v, contact time 300 seconds (5 minutes)
  Log reduction in viral titre: 2 −log10 TCID50/ml
Urbani SARS; Urbani SARS, PMD 0.25% w/v
  Kill rate: 4.0 −log10 TCID50/ml/min
Urbani SARS; Urbani SARS, PMD 0.5% w/v, contact time 10 seconds
  Log reduction in viral titre: 1.5 −log10 TCID50/ml
Urbani SARS; Urbani SARS, PMD 0.5% w/v, contact time 30 seconds
  Log reduction in viral titre: 2.5 −log10 TCID50/ml
Urbani SARS; Urbani SARS, PMD 0.5% w/v, contact time 60 seconds (1 minute)
  Log reduction in viral titre: 2.5 −log10 TCID50/ml
Urbani SARS; Urbani SARS, PMD 0.5% w/v, contact time 300 seconds (5 minutes)
  Log reduction in viral titre: 2.5 −log10 TCID50/ml
Urbani SARS; Urbani SARS, PMD 0.5% w/v
  Kill rate: 6.0 −log10 TCID50/ml/min
Urbani SARS; Urbani SARS, PMD 1% w/v, contact time 10 seconds
  Log reduction in viral titre: 2 −log10 TCID50/ml
Urbani SARS; Urbani SARS, PMD 1% w/v, contact time 30 seconds
  Log reduction in viral titre: 1.5 −log10 TCID50/ml
Urbani SARS; Urbani SARS, PMD 1% w/v, contact time 60 seconds (1 minute)
  Log reduction in viral titre: 2 −log10 TCID50/ml
Urbani SARS; Urbani SARS, PMD 1% w/v, contact time 300 seconds (5 minutes)
  Log reduction in viral titre: 1.5 −log10 TCID50/ml
Urbani SARS; Urbani SARS, PMD 1% w/v
  Kill rate: 6.0 −log10 TCID50/ml/min
Urbani SARS; Urbani SARS, PMD 2% w/v, contact time 10 seconds
  Log reduction in viral titre: 1.5 −log10 TCID50/ml
Urbani SARS; Urbani SARS, PMD 2% w/v, contact time 30 seconds
  Log reduction in viral titre: 1 −log10 TCID50/ml
Urbani SARS; Urbani SARS, PMD 2% w/v, contact time 60 seconds (1 minute)
  Log reduction in viral titre: 1.5 −log10 TCID50/ml
Urbani SARS; Urbani SARS, PMD 2% w/v, contact time 300 seconds (5 minutes)
  Log reduction in viral titre: 1.5 −log10 TCID50/ml
Urbani SARS; Urbani SARS, PMD 2% w/v
  Kill rate: 6.0 −log10 TCID50/ml/min
Urbani SARS; all four concentrations, all contact times
  Reduction in viral titre (significance): significant reductions in viral titre
MDCK cells [3]; PMD 0.25% w/v
  Percentage cell survival: 40%
MDCK cells [3]; PMD 0.5% w/v
  Percentage cell survival: 100%
MDCK cells [3]; PMD 2% w/v
  Percentage cell survival: 85%
[4]; HSV-1
  Effectiveness against the virus: effective
[4]; HSV-1, PMD 0.25% w/v, contact time 10 seconds
  Log reduction in viral titre: 0 −log10 TCID50/ml
[4]; HSV-1, PMD 0.25% w/v, contact time 30 seconds
  Log reduction in viral titre: 0 −log10 TCID50/ml
[4]; HSV-1, PMD 0.25% w/v, contact time 60 seconds (1 minute)
  Log reduction in viral titre: 0 −log10 TCID50/ml
[4]; HSV-1, PMD 0.25% w/v, contact time 300 seconds (5 minutes)
  Log reduction in viral titre: 0.5 −log10 TCID50/ml
[4]; HSV-1, PMD 0.5% w/v, contact time 10 seconds
  Log reduction in viral titre: 0 −log10 TCID50/ml
[4]; HSV-1, PMD 0.5% w/v, contact time 30 seconds
  Log reduction in viral titre: 0 −log10 TCID50/ml
[4]; HSV-1, PMD 0.5% w/v, contact time 60 seconds (1 minute)
  Log reduction in viral titre: 0 −log10 TCID50/ml
[4]; HSV-1, PMD 0.5% w/v, contact time 300 seconds (5 minutes)
  Log reduction in viral titre: 0 −log10 TCID50/ml
[4]; HSV-1, PMD 1% w/v, contact time 10 seconds
  Log reduction in viral titre: 0 −log10 TCID50/ml
[4]; HSV-1, PMD 1% w/v, contact time 30 seconds
  Log reduction in viral titre: 0.5 −log10 TCID50/ml
[4]; HSV-1, PMD 1% w/v, contact time 60 seconds (1 minute)
  Log reduction in viral titre: 0.5 −log10 TCID50/ml
[4]; HSV-1, PMD 1% w/v, contact time 300 seconds (5 minutes)
  Log reduction in viral titre: 1.5 −log10 TCID50/ml
[4]; HSV-1, PMD 1% w/v
  Kill rate: 0.3 −log10 TCID50/ml/min
[4]; HSV-1, PMD 2% w/v, contact time 10 seconds
  Log reduction in viral titre: 0 −log10 TCID50/ml
[4]; HSV-1, PMD 2% w/v, contact time 30 seconds
  Log reduction in viral titre: 0 −log10 TCID50/ml
[4]; HSV-1, PMD 2% w/v, contact time 60 seconds (1 minute)
  Log reduction in viral titre: 0.5 −log10 TCID50/ml
[4]; HSV-1, PMD 2% w/v, contact time 300 seconds (5 minutes)
  Log reduction in viral titre: 2.5 −log10 TCID50/ml
[4]; HSV-1, PMD 2% w/v
  Kill rate: 0.5 −log10 TCID50/ml/min
[4]; PMD 0.25% w/v and 0.5% w/v
  Antiviral activity: did not exhibit any antiviral activity
[4]; PMD 1% w/v and 2% w/v, 5 minute contact time
  Reduction in viral titre (significance): Significant reduction in viral titre
[4]; all other concentrations and contact times
  Reduction in viral titre (significance): no significant reduction in viral titre
[4]; contact time of 5 minutes
  PMD concentration desirable for a significant effect: at least 1 % w/v
C1008 cells; C1008, PMD 0.25% w/v
  Percentage cell survival: 80%
C1008 cells; C1008, PMD 0.5% w/v
  Percentage cell survival: 60%
C1008 cells; C1008, PMD 2% w/v
  Percentage cell survival: 100%
[5]; 10 seconds' contact time
  PMD concentration desirable for a significant antiviral action: at least 1 % w/v
[5]; A/Sydney/5/97, PMD 0.25% w/v, contact time 10 seconds
  Log reduction in viral titre: 0.4 −log10 TCID50/ml
[5]; A/Sydney/5/97, PMD 0.25% w/v, contact time 30 seconds
  Log reduction in viral titre: 1.9 −log10 TCID50/ml
[5]; A/Sydney/5/97, PMD 0.25% w/v, contact time 60 seconds (1 minute)
  Log reduction in viral titre: 1.9 −log10 TCID50/ml
[5]; A/Sydney/5/97, PMD 0.25% w/v, contact time 300 seconds (5 minutes)
  Log reduction in viral titre: 1.4 −log10 TCID50/ml
[5]; A/Sydney/5/97, PMD 0.25% w/v
  Kill rate: 4.5 −log10 TCID50/ml/min
[5]; A/Sydney/5/97, PMD 0.5% w/v, contact time 10 seconds
  Log reduction in viral titre: 0.4 −log10 TCID50/ml
[5]; A/Sydney/5/97, PMD 0.5% w/v, contact time 30 seconds
  Log reduction in viral titre: 1.9 −log10 TCID50/ml
[5]; A/Sydney/5/97, PMD 0.5% w/v, contact time 60 seconds (1 minute)
  Log reduction in viral titre: 2.4 −log10 TCID50/ml
[5]; A/Sydney/5/97, PMD 0.5% w/v, contact time 300 seconds (5 minutes)
  Log reduction in viral titre: 1.9 −log10 TCID50/ml
[5]; A/Sydney/5/97, PMD 0.5% w/v
  Kill rate: 4.8 −log10 TCID50/ml/min
[5]; A/Sydney/5/97, PMD 1% w/v, contact time 10 seconds
  Log reduction in viral titre: 1.9 −log10 TCID50/ml
[5]; A/Sydney/5/97, PMD 1% w/v, contact time 30 seconds
  Log reduction in viral titre: 2.4 −log10 TCID50/ml
[5]; A/Sydney/5/97, PMD 1% w/v, contact time 60 seconds (1 minute)
  Log reduction in viral titre: 2.4 −log10 TCID50/ml
[5]; A/Sydney/5/97, PMD 1% w/v, contact time 300 seconds (5 minutes)
  Log reduction in viral titre: 2.4 −log10 TCID50/ml
[5]; A/Sydney/5/97, PMD 1% w/v
  Kill rate: 12.0 −log10 TCID50/ml/min
[5]; A/Sydney/5/97, PMD 2% w/v, contact time 10 seconds
  Log reduction in viral titre: 1.9 −log10 TCID50/ml
[5]; A/Sydney/5/97, PMD 2% w/v, contact time 30 seconds
  Log reduction in viral titre: 2.4 −log10 TCID50/ml
[5]; A/Sydney/5/97, PMD 2% w/v, contact time 60 seconds (1 minute)
  Log reduction in viral titre: 2.4 −log10 TCID50/ml
[5]; A/Sydney/5/97, PMD 2% w/v, contact time 300 seconds (5 minutes)
  Log reduction in viral titre: 2.4 −log10 TCID50/ml
[5]; A/Sydney/5/97, PMD 2% w/v
  Kill rate: 12.0 −log10 TCID50/ml/min
[5]; PMD 1% w/v and 2% w/v, all contact time points
  Reduction of viral titre: 1.9-2.4 log10 TCID50/ml
[5]; all concentrations tested, except 0.25% w/v and 0.5% w/v at the 10 second contact time
  Reduction of infection (significance): significantly reduces
[5]; influenza virus A/Sydney/5/97
  Effectiveness against the virus: effective
[5]; the two lower concentrations (0.25%, 0.5% w/v), 30 second to 5 minute contact times
  Reduction of viral titre: 1.9-2.4 log10 TCID50/ml
